Test results as given in patent US8669292B2, “Therapeutic formulation” (Orion Therapeutics, LLC, priority 2005, dated 2014).
≈ marks a conversion by molar mass, not a printed value. Read-outs that look alike come from different tables or passages of the source.

Assays:
H125 Lung Cancer = assay: IC50 assay (concentration-cell number study); format: cell-based
Method: (§2) These cells are grown in 5 ml culture medium (RPMI-1640+15% Bovine Calf serum containing 1% penicillin-streptomycin, and 1% Glutamine) at 37° C. and 5% CO2 at a starting concentration of 5×10^4 cells/T25 flask. On day 3, cells are exposed to different concentrations of the drug. Flasks are incubated for 120 h (5 d) in a 5% CO2 incubator at 37° C. and the cells harvested with trypsin, washed once with Hanks Balanced Salt Solution (HBSS) and re-suspended in HBSS containing 0.08% Trypan Blue. Both viable and dead cells are counted using a hemocytometer. Viable cell numbers are normalized to an untreated control and plotted as a function of drug concentration. The IC50 value is determined using Prism 4.0.
(§3) Cell Lines utilized in IC50 Assays: HCT-116 human colon cancer cells, H125 Lung Cancer, MCF-7, Breast Cancer, MDA-235 Breast Cancer, LNCaP Prostate Cancer, OVAR-5 Ovarian Cancer, U251N Brain Cancer Sarcoma 180, Panc 01Pancreatic Cancer, CCRF-CEM Leukemia, HEP-G2 Liver Cancer, L1210 Leukemia, Colon 38 Colon Cancer.

[1] = test system: HCT-116 human colon cancer cells; assay: IC50 assay (concentration-cell number study); format: cell-based; details: for IC50: Homo sapiens
Method: Concentration-cell number studies (IC50 assay) were carried out utilizing 12 separate compositions (numbered 1-12 below) against 13 different cancer cell lines (see Table 6). […] On day 3, cells are exposed to different concentrations of the drug. Flasks are incubated for 120 h (5 d) in a 5% CO2 incubator at 37° C. and the cells harvested with trypsin, washed once with Hanks Balanced Salt Solution (HBSS) and re-suspended in HBSS containing 0.08% Trypan Blue. Both viable and dead cells are counted using a hemocytometer. Viable cell numbers are normalized to an untreated control and plotted as a function of drug concentration. The IC50 value is determined using Prism 4.0.

Sarcoma 180 = assay: IC50 assay (concentration-cell number study); format: cell-based
Method: (§4) Concentration-cell number studies (IC50 assay) were carried out utilizing 12 separate compositions (numbered 1-12 below) against 13 different cancer cell lines (see Table 6). These cells are grown in 5 ml culture medium (RPMI-1640+15% Bovine Calf serum containing 1% penicillin-streptomycin, and 1% Glutamine) at 37° C. and 5% CO2 at a starting concentration of 5×10^4 cells/T25 flask. On day 3, cells are exposed to different concentrations of the drug. Flasks are incubated for 120 h (5 d) in a 5% CO2 incubator at 37° C. and the cells harvested with trypsin, washed once with Hanks Balanced Salt Solution (HBSS) and re-suspended in HBSS containing 0.08% Trypan Blue. Both viable and dead cells are counted using a hemocytometer. Viable cell numbers are normalized to an untreated control and plotted as a function of drug concentration. The IC50 value is determined using Prism 4.0.

Colon 38 Colon Cancer = assay: IC50 assay (concentration-cell number study); format: cell-based
Method: as §2, §3

[2] = HORAC (Brunswick Test # A104); format: biochemical
Method: Peroxyl radical scores are measured in the ORAC test (Oxygen Radical Absorption Capacity). Hydroxyl Radicals are tested in the HORAC test (Hydroxyl Radical Absorption Capacity). Peroxynitrite Radicals are tested in the NORAC test (Peroxynitrite Radical Absorption Capacity). Superoxide Radicals are measured in the SOD test (Superoxide Radical Absorption Capacity). […] The result is expressed as micromoles of caffeic acid equivalent per liter (CAE/L) for liquid formulations and caffeic acid equivalent per gram (CAE/g) for dry powders.

CCRF-CEM Leukemia = assay: IC50 assay (concentration-cell number study); format: cell-based
Method: as §4

[3] = ORAC lipo (Brunswick Test # A102); format: biochemical
Method: (§1) Peroxyl radical scores are measured in the ORAC test (Oxygen Radical Absorption Capacity). Hydroxyl Radicals are tested in the HORAC test (Hydroxyl Radical Absorption Capacity). Peroxynitrite Radicals are tested in the NORAC test (Peroxynitrite Radical Absorption Capacity). Superoxide Radicals are measured in the SOD test (Superoxide Radical Absorption Capacity). The ORAC test measures the antioxidant activity against peroxyl radicals by determining how many peroxyl free radicals can be absorbed by a given antioxidant as compared to the vitamin E analog-Trolox. The result is expressed as micromoles of Trolox equivalent per liter (TE/L) for liquid formulations and Trolox equivalent per gram (TE/g) for dry powders. Brunswick tested the Applicant's compounds for antioxidant activity against both hydrophilic and lipophilic peroxyl radicals as expressed in the ORAC total (see table 7).

[4] = test system: Panc 01 Pancreatic Cancer; assay: IC50 assay (concentration-cell number study); format: cell-based
Method: as §4

L1210 Leukemia = assay: IC50 assay (concentration-cell number study); format: cell-based
Method: as §4

[5] = NORAC (Brunswick Test # A105); format: biochemical
Method: Peroxyl radical scores are measured in the ORAC test (Oxygen Radical Absorption Capacity). Hydroxyl Radicals are tested in the HORAC test (Hydroxyl Radical Absorption Capacity). Peroxynitrite Radicals are tested in the NORAC test (Peroxynitrite Radical Absorption Capacity). Superoxide Radicals are measured in the SOD test (Superoxide Radical Absorption Capacity). Applicant's compounds and compositions were tested by the NORAC test (Brunswick test # A 105), which measures the activity of a given antioxidant against peroxynitrite radicals. NORAC tests were based on the method of Chung H. et al (2001) Journal Agricultural of Food Chemistry, 49: 3614-3621. Scores are expressed in micromoles of trolox equivalent per liter (TE/L) for liquid formulations and Trolox equivalent per gram (TE/g) for dry powders.

[6] = ORAC total (Brunswick Test # A103); format: biochemical
Method: as §1

HEP-G2 Liver Cancer = assay: IC50 assay (concentration-cell number study); format: cell-based
Method: as §4

MCF-7 Breast Cancer = assay: IC50 assay (concentration-cell number study); format: cell-based
Method: as §4

[7] = ORAC hydro (Brunswick Test # A101); format: biochemical
Method: as §1

[8] = in vivo; cited from earlier work
U251N Brain Cancer = assay: IC50 assay (concentration-cell number study); format: cell-based
Method: as §4

[9] = SORAC (Brunswick Test # A106); format: biochemical
Method: Peroxyl radical scores are measured in the ORAC test (Oxygen Radical Absorption Capacity). Hydroxyl Radicals are tested in the HORAC test (Hydroxyl Radical Absorption Capacity). Peroxynitrite Radicals are tested in the NORAC test (Peroxynitrite Radical Absorption Capacity). Superoxide Radicals are measured in the SOD test (Superoxide Radical Absorption Capacity). Applicant's compounds and compositions were tested by the SORAC test (Brunswick test #106), which measures the activity of a given antioxidant against Superoxide radicals. The tests were conducted based on the method of Zhao et al (1999) Journal of Agricultural and Food Chemistry, (1999), 47: 2537-2543. The calibration standard was SOD and was expressed as a unit SOD equivalent per liter (unitsSODeq/L) for liquid formulations and unit SOD equivalent per gram (unitsSODeq/g) for dry powders.

[10] = test system: 13 different cancer cell lines; assay: IC50 assays, average or range over all cell lines; format: cell-based
Method: as §2, §3

MDA-235 Breast Cancer = assay: IC50 assay (concentration-cell number study); format: cell-based
Method: as §4

OVAR-5 Ovarian Cancer = assay: IC50 assay (concentration-cell number study); format: cell-based
Method: as §4

LNCaP Prostate Cancer = assay: IC50 assay (concentration-cell number study); format: cell-based
Method: as §4

[11] = test system: HCT-116 human colon cancer cells; assay: Clonogenic dose response; format: cell-based
Method: Clonogenic survival of the cells was measured by a standard tissue culture procedure.
Asimicin was prepared in ethanol. Clonogenic survival of the cells was measured by a standard tissue culture procedure.

[12] = Mus musculus, 120 h exposure, read-out: IC50
[13] = Homo sapiens, 120 h exposure, read-out: IC50
[14] = Cantron oral liquid scores converted from TE/L to TE/g

## Oc1ccccc1O [Composition 2, Catechol]
H125 Lung Cancer
  IC50 times lower than Cantron (times more efficacious than Cantron): 14.29 times lower than
H125 Lung Cancer; Homo sapiens, NCI-H125, 120 h exposure, read-out: IC50
  IC50: 2.1 µg/mL (≈ 19.1 µM)
[1]; HCT-116
  IC50 times lower than Cantron (times more efficacious than Cantron): 7.04 times lower than
[1]; HCT-116, Cantron score 19.7 multiplied by 12.7% catechol by weight
  calculated cytotoxicity value of catechol: 2.5019 µg/mL
[1]; HCT-116, 120 h, HCT-116, 120 h exposure, read-out: IC50
  IC50: 2.8 µg/mL (≈ 25.4 µM)
[1]; HCT-116, read-out: calculated cytotoxicity value of catechol, HCT-116, Cantron score 19.7 multiplied by 12.7% catechol by weight
  IC50: 2.5 µg/mL (≈ 22.7 µM)
Sarcoma 180
  IC50 times lower than Cantron (times more efficacious than Cantron): 12.11 times lower than
Sarcoma 180; [12]
  IC50: 1.9 µg/mL (≈ 17.3 µM)
Colon 38 Colon Cancer
  IC50 times lower than Cantron (times more efficacious than Cantron): 11.36 times lower than
Colon 38 Colon Cancer; 120 h exposure, read-out: IC50
  IC50: 2.2 µg/mL (≈ 20 µM)
[2]; Cantron oral liquid scores converted from CAE/L to CAE/g
  HORAC SCORE: 5,572 micromoles CAE/g
[2]; Hydroxyl score ratio
  more effective than Cantron NM: 2,079% more effective than
CCRF-CEM Leukemia
  IC50 times lower than Cantron (times more efficacious than Cantron): 6.19 times lower than
CCRF-CEM Leukemia; [13]
  IC50: 2.1 µg/mL (≈ 19.1 µM)
[3]; [14]
  ORAC lipo SCORE: 24,682 micromoles TE/g
[3]; Peroxyl-lipo score ratio
  more effective than the improved Cantron ASV: is still 4086.4% more effective
[4]
  IC50 times lower than Cantron (times more efficacious than Cantron): 14.71 times lower than
[4]; 120 h exposure, read-out: IC50
  IC50: 1.7 µg/mL (≈ 15.4 µM)
L1210 Leukemia
  IC50 times lower than Cantron (times more efficacious than Cantron): 10.52 times lower than
L1210 Leukemia; [12]
  IC50: 1.9 µg/mL (≈ 17.3 µM)
[5]; [14]
  NORAC SCORE: 2,593 micromoles TE/g
[5]; Peroxynitrite score ratio
  more effective than the improved Cantron ASV: is still 409.63% more effective
[6]; [14]
  TOTAL ORAC SCORE: 73,161 micromoles TE/g
[6]; Peroxyl-total score ratio
  more effective than Cantron NM: The Catechol composition is 1702%
HEP-G2 Liver Cancer
  IC50 times lower than Cantron (times more efficacious than Cantron): 4.61 times lower than
HEP-G2 Liver Cancer; Homo sapiens, HepG2, 120 h exposure, read-out: IC50
  IC50: 2.6 µg/mL (≈ 23.6 µM)
MCF-7 Breast Cancer
  IC50 times lower than Cantron (times more efficacious than Cantron): 11.36 times lower than
MCF-7 Breast Cancer; 120 h exposure
  IC50: to 2.2 μg/ml). It is
MCF-7 Breast Cancer; Homo sapiens, MCF7, 120 h exposure, read-out: IC50
  IC50: 2.2 µg/mL (≈ 20 µM)
[7]; [14]
  ORAC hydro SCORE: 48,479 micromoles TE/g
[7]; Peroxyl-hydro score ratio
  more effective than the improved Cantron ASV: is still 507% more effective than
[8]
  known side effects in animal tests: stomach irritation and hyperplasia
U251N Brain Cancer
  IC50 times lower than Cantron (times more efficacious than Cantron): 10.45 times lower than
U251N Brain Cancer; 120 h exposure, read-out: IC50
  IC50: 2.2 µg/mL (≈ 20 µM)
[9]; Cantron oral liquid scores converted from unitsSODeq/L to unitsSODeq/g
  SOD SCORE: 159,000 unitsSODeq/g
[9]; Superoxide score ratio
  more effective than the improved Cantron ASV: is still 441.66% more effective
[10]; average of 13 cell lines
  IC50: 2.3 µg/mL (≈ 20.9 µM)
[10]; average over the cell lines tested
  times more efficacious than Cantron: 10.35 times
MDA-235 Breast Cancer
  IC50 times lower than Cantron (times more efficacious than Cantron): 9.33 times lower than
MDA-235 Breast Cancer; 120 h exposure, read-out: IC50
  IC50: 3 µg/mL (≈ 27.2 µM)
OVAR-5 Ovarian Cancer
  IC50 times lower than Cantron (times more efficacious than Cantron): 3.69 times lower than
OVAR-5 Ovarian Cancer; 120 h exposure, read-out: IC50
  IC50: 3.2 µg/mL (≈ 29.1 µM)
LNCaP Prostate Cancer
  IC50 times lower than Cantron (times more efficacious than Cantron): 18.82 times lower than
LNCaP Prostate Cancer; [13]
  IC50: 1.7 µg/mL (≈ 15.4 µM)
[11]; 24 h exposure, 10 micrograms/ml
  clonogenic survival: 0.1
[11]; 24 h exposure, concentrations up to 1 microgram/ml
  effect on clonogenic survival: no effect
[11]; concentration of up to 10 micrograms/ml, exposure time not given
  effect on the survival of the tumor cells: no effect
[11]; extended exposure 168 h
  concentration with cell survival at the 0.1 level: 200 picograms/ml
